In patent US20220040304A1, “A COMPOSITION FOR CANCER CELL DEATH AND ITS USE” (Industry-University Cooperation Foundation Hanyang …, priority 2018, published 2022):

Experiments:
[1] = test system: MCF-7 cells; assay: Cell death by SYTOX Green or EthD-1 and DAPI fluorescence (light irradiation or Co-h); format: cell-based, human; details: MCF-7, protein 10 μM 24 hours; light 10 mW/cm^2 or Co-h 150 μM over time
Method: MCF-7 cells were seeded at 5×10^5 cells/mL in a 96-well plate (SPL Cell Culture Plate, 96 well (SPL, Cat #30096)), and cultured at 37° C. for 24 hours (overnight). After the culture for 24 hours, the cells were washed with FBS & Phenol red-free media (RPMI), and 100 μL of an FBS-free medium containing the purified protein (final concentration: 10 μM) was added, followed by reaction at 37° C. for 24 hours.
After the reaction for 24 hours, the cells were washed with FBS & Phenol red-free media (RPMI), and then 100 μL of FBS & Phenol red-free media (RPMI) was then added.
After the reaction, 8.1 μL of FMN (final concentration: 150 μM) was added. […]
SYTOX Green or EthD-1 and DAPI fluorescence images were observed using a confocal microscope according to a protein type treated to cells and i) light irradiation time or ii) reaction time with a Co-h substrate, and cell death was confirmed by measuring relative fluorescence intensity at an excitation wavelength of 504 nm and an emission wavelength of 523 nm of SYTOX Green, and an excitation wavelength of 525 nm and an emission wavelength of 590 nm of EthD-1 using a plate reader.
Whether or not Cell death was observed by fluorescence microscopy using SYTOX Green (dead cell-specific dye, green) or EthD-1 (dead cell-specific dye, red) and DAPI (live cell-specific dye, blue).

[2] = test system: singlet oxygen; assay: ROS generation: singlet oxygen measured by decrease of ADPA fluorescence; format: biochemical
Method: A ROS-generating effect of the RLuc8-MS protein was confirmed using 100 μL of buffer (50 mM HEPES-KOH, 24° C., pH 7.4) containing RLuc8-MS protein (final concentration: 10 μM), anthracene-9,10-dipropionic acid (ADPA, Abcam., UK; final concentration: 50 μM) whose fluorescence intensity decreases in the presence of singlet oxygen, flavin mononucleotide (FMN) (final concentration: 150 μM) and a Co-h substrate solution. The rate of decrease in fluorescence intensity was measured at the excitation wavelength of 380 nm and the emission wavelength of 430 nm of ADPA using a plate reader.
a ROS-generating effect of the RLuc8-MS protein was measured using RLuc8-MS (final concentration: 10 μM) and ADPA (final concentration: 50 μM) whose fluorescence intensity decreases in the presence of singlet oxygen.
Here, the active oxygen generation rate of each protein was measured using 100 μL of buffer (50 mM HEPES-KOH, 24° C., pH 7.4) containing FMN (final concentration: 150 μM) and a Co-h substrate solution (final concentration: 150 μM).
The rate of decrease in fluorescence intensity was measured at the excitation wavelength of 370 nm and the emission wavelength of 420 nm of DHE using a plate reader. In addition, the rate of decrease in fluorescence intensity was measured at the excitation wavelength of 380 nm and the emission wavelength of 430 nm of ADPA using a plate reader.
(§1) A ROS generation rate was measured using 100 μL of buffer (50 mM HEPES-KOH, 24° C., pH 7.4) containing the KR protein, RLuc8.6-KR protein (final concentration: 10 μM) and ADPA (final concentration: 50 μM) whose fluorescence intensity decreases in the presence of singlet oxygen.
(§2) A ROS generation rate was measured using 100 μL of buffer (50 mM HEPES-KOH, 24° C., pH 7.4) containing MS, RLuc8-MS (final concentration: 10 μM), ADPA (final concentration: 50 μM) whose fluorescence intensity decreases in the presence of singlet oxygen and FMN (final concentration: 150 μM).
After irradiation with light at 10 mW/cm^2 for 30 minutes, the rate of decrease in fluorescence intensity was measured at the excitation wavelength of 380 nm and the emission wavelength of 430 nm of ADPA using a plate reader.
as §1, with “oxygen and a Co-h substrate solution (final concentration: 150 μM).” for “oxygen.”
as §2, with “oxygen,” for “oxygen and”, “150 μM) and a Co-h substrate solution (final concentration: 150” for “150”
The rate of decreasing fluorescence intensity was measured at the excitation wavelength of 380 nm and the emission wavelength of 430 nm of ADPA using a plate reader. […]

For “RLuc8-MS: fusion protein of RLuc8 and MiniSOG without lead peptide, 53 kDa”, the “cell death by staining (SYTOX Green or EthD-1 dead cells, DAPI live cells)” value [1] was “stained with DAPI”, the “singlet oxygen generation rate after Co-h substrate reaction” value ([2]; Co-h 150 μM, 30-min reaction, without light irradiation, protein 10 μM, ADPA) was “highest singlet oxygen generation rate” and the “Co-h concentration until which the singlet oxygen generation rate increased, then constantly maintained” value ([2]; protein 10 μM, ADPA 50 μM, FMN 150 μM, substrate reaction time 5 minutes) was 150 µM. For the same substance, the “reaction time with Co-h until which the singlet oxygen generation rate increased, then constantly maintained” value ([2]; protein 10 μM, Co-h 150 μM, ADPA) was 20 min.

“MS: first protein MiniSOG, ROS-generating protein (singlet oxygen), expressed from pRSET-MiniSOG, 13 kDa [reference compound]” was tested, and the “cell death by staining (SYTOX Green or EthD-1 dead cells, DAPI live cells)” value [1] was “stained with DAPI”, the “singlet oxygen generation rate after light irradiation” value ([2]; 10 mW/cm^2, 30 minutes, no substrate, protein 10 μM, ADPA) was “higher singlet oxygen generation rate” and the “singlet oxygen generation rate by Co-h reaction after ROS scavenger treatment” value ([2]; RLuc8-MS 10 μM, Co-h 150 μM 30 minutes, SOD 800 U/ml, sodium azide 100 mM or D-mannitol 100 mM) was “lowest when sodium azide was treated”.
